From patent publication US20250320252A1 (The Scripps Research Institute, priority 2021, published 2025)
Like-named read-outs stand apart in the source and are kept apart here.

Assays:
[1] = type: in vitro ADME, cynomolgus monkey
Experimental: (§1) To investigate the stability of the conjugates in mouse, cyno monkey, dog, and human plasma, conjugate mCMD307 was incubated in plasma for 24 h (Table 13). At certain time intervals a sample of plasma was taken and plasma proteins precipitated. Samples were analyzed using LC-MS.

in vitro = in vitro ADME; settings: dog, human, plasma
Experimental: as §1

[2] = Plasma stability, 24 h, LC-MS, mouse plasma; type: in vitro ADME
Experimental: as §1

Compound: CC[C@H](C)[C@H](NC(=O)[C@H](CO)NC(=O)[C@H](Cc1ccc(O)cc1)NC(=O)[C@H](CC(=O)O)NC(=O)[C@H](CO)NC(=O)[C@@H](NC(=O)[C@H](Cc1ccccc1)NC(=O)[C@@H](NC(=O)CNC(=O)[C@H](CCC(=O)O)NC(=O)C(C)(C)NC(=O)[C@@H](N)Cc1ccc(O)cc1)[C@@H](C)O)[C@@H](C)O)C(=O)N[C@@H](Cc1ccc(O)cc1)C(=O)N[C@H]1CCCCNC(=O)CN(C(=O)CCNC(=O)CCOCCOCCOCCNC(=O)CCCCCCCCCCCCCCCCC(=O)O)CC(=O)NCCCC[C@@H](C(=O)N[C@@H](Cc2ccccc2)C(=O)N[C@H](C(=O)N[C@@H](CC(N)=O)C(=O)N[C@@H](Cc2c[nH]c3ccccc23)C(=O)N[C@@H](CC(C)C)C(=O)N[C@@H](CC(C)C)C(=O)N[C@@H](C)C(=O)NCC(=O)NCC(=O)N2CCC[C@H]2C(=O)N[C@@H](CO)C(=O)N[C@@H](CO)C(=O)NCC(=O)N[C@@H](C)C(=O)N2CCC[C@H]2C(=O)N2CCC[C@H]2C(=O)N2CCC[C@H]2C(=O)N[C@@H](CO)C(N)=O)C(C)C)NC(=O)C(C)(C)NC(=O)[C@H](C)NC(=O)[C@H](C)NC(=O)[C@H](CCC(N)=O)NC(=O)[C@H](CCCCN)NC(=O)[C@H](CC(=O)O)NC1=O [mCMD307, YAibEGT-FTSDY-SIYXD-KQAAAib-XFVNW-LLAGG-PSSGA-PPPS-NH2 (where each X is K)]
- Area under the peak (%) [1]: 87%
- remaining at 24 h (in vitro): 92%
- Area under the peak (%) [2]: 53%
